Residues, ends and D or L forms follow the SMILES beside them. *: point of attachment. Cbz = O=C(OCc1ccccc1)*; CH2F = FC*
Columns and labels:
Type in all cases: cell-based, Schizosaccharomyces pombe
[1] = tested on: WT and DKO S. pombe cells; assay: DHS, PHS or C2-ceramide treatment: viability and DNA fragmentation; settings: various concentrations, 0-3 hours
Method: (§1) Cell viability assay: For cell viability at different growth phases, cells were grown to various densities in YES (determined by OD595). The number of viable cells was obtained after cells were diluted properly in distilled water and plated in triplicates on YES agar. Colonies were scored after 3 days of incubation at 30° C. For cell viability after various treatments, cells were grown to early log phase (OD595=0.1) before lipids or other chemicals were added. After treatment, cells were collected and viability was analyzed as described above.
(§2) DAG, fatty acid and ceramide treatment: For fatty acid treatment, palmitic acid and oleic acid were dissolved in chloroform as 500 mM stock. Each microliter of fatty acids was dissolved in 12.5 μl tyloxapol-enthanol (1:1) and added into growth medium. Wild type and DKO strains were grown to early log phase and then incubated in medium containing different concentrations (0.5 mM, 0.8 mM and 1 mM) of palmitic acid or oleic acid for 0-3 hours. Control groups were cultured in the medium added with the same volume of tyloxapol-enthanol without fatty acids. After incubation, cells were analyzed for viability and DNA fragmentation. DiC8 DAG and ceramide were dissolved in DMSO. The working concentrations for DAG was 0.1 mM, 0.2 mM or 0.3 mM, while for ceramide was 10 μM or 20 μM (23, 24).
(§3) 4′,6-diamidino-2-phenylindole (DAPI) staining: Cells were fixed with 3.7% formaldehyde for 10 minutes, washed once with PBS containing 4% NP40 and twice with PBS, and then stained with DAPI. Cells were viewed using a Leica DMLB microscope.
(§4) Terminal deoxynucleotidyl transferase(TdT)-mediated dUTP nick-end labeling (TUNEL): Cells were fixed with 3.7% formaldehyde for 1 hr, digested with zymolase, washed with PBS, incubated in a permeabilization solution (0.1% Triton in 0.1% sodium citrate) for 2 minutes on ice, washed twice with PBS and incubated with 50 μl TUNEL mixtures for 1 hour at 37° C. Cells were washed with PBS twice and were viewed using a Leica DMLB microscope.

[2] = tested on: DKO cells; assay: Production of reactive oxygen species (dihydroethidium); settings: for ROS production: incubation of log phase cells
Method: Production of reactive oxygen species: ROS were detected by dihydroethidium (Sigma), which was used at 5 μg per ml cell culture. After incubation for 10 minutes, cells were viewed under a Leica DMLB microscope through a Texas Red filter. The free radical spin trap reagent 3,3,5,5,-tetramethyl-pyrroline N-oxide (TMPO) was used at 125 μg per ml cell culture. Cells were pretreated with […] for 2 hours before lipids were added.

[3] = tested on: DKO strain (S. pombe Δplh1 Δdga1 double deletion); assay: Cell viability assay (colony forming) after treatment
Method: as §1, §2

[4] = tested on: DKO strain (S. pombe Δplh1 Δdga1 double deletion); assay: Detection of apoptotic markers: DAPI staining and TUNEL (DNA fragmentation); settings: for cells undergoing apoptosis in the presence of the inhibitor / rescue of palmitate-induced apoptosis: double deletion cells treated with 0.8 mM of palmitate; for apoptosis induced by fatty acid: DKO cells, early log phase, two hours (FIGS. 14-16)
Method: as §2
Detection of apoptotic markers: All assays in this section were performed as previously described (26).
as §3, §4

[5] = tested on: DKO cells; assay: Diacylglycerol kinase assay of cellular DAG level
Method: (§5) Diacylglycerol kinase assay: The assay was conducted as described in the Biotrak assay reagents system (Amersham Biosciences). Wild type and DKO yeast cells were grown in YES medium to mid log phase and then treated with medium containing 0.8 mM palmitate or oleate. Cells were collected at different time points (0, 30, 60 and 120 minutes). DAG was extracted with other lipids and quantified through a phosphorylation reaction catalyzed by a bacterial DAG kinase.

[6] = tested on: wild type cells; assay: Diacylglycerol kinase assay of cellular DAG level, wild type; settings: after 2-hour incubation with palmitate, from 1
Method: as §5

[7] = mutant cells pretreated with TMPO (125 μg/ml) for 2 hours, then 1 mM palmitate for 2 hours
[8] = DKO strain, early log phase cells, various concentrations of diC8 DAG, 0-3 hours
[9] = caspase inhibitor added, data not shown

## CCCCCCCCCCCCC/C=C/[C@@H](O)[C@H](CO)NC(C)=O [C2-ceramide, N-acetylsphigosine]
[1]
  DNA fragmentation: no DNA fragmentation was observed
  killing of S. pombe cells: could kill S. pombe cells at high concentrations

## CCCCCCCCCCCCCCC[C@@H](O)[C@@H](N)CO [DHS, dihydrosphingosine]
[1]
  DNA fragmentation: no DNA fragmentation was observed
  killing of S. pombe cells: could kill S. pombe cells at high concentrations

## CCCCCCCCCCCCCC[C@@H](O)[C@@H](O)[C@@H](N)CO [PHS, phytosphingosine]
[1]
  DNA fragmentation: no DNA fragmentation was observed
  killing of S. pombe cells: could kill S. pombe cells at high concentrations

## CC1(C)C=[N+]([O-])C(C)(C)C1 [TMPO, 3,3,5,5,-tetramethyl-pyrroline N-oxide]
[2]; [7]
  scavenging of ROS: could effectively scavenge ROS
[3]; [7]
  prevention of cell death: prevent DNA fragmentation (FIG. 24) and cell death
[4]; [7]
  prevention of DNA fragmentation: prevent DNA fragmentation

## CCCCCCCC(=O)OC[C@H](CO)OC(=O)CCCCCCC [diC8 DAG, 1,2-dioctanoyl-sn-glycerol]
[2]
  ROS production: induced dramatic ROS production
[3]; [8]
  cell death: cell death were observed in the DKO strain
[4]; [8]
  nuclear DNA fragmentation: prominent nuclear DNA fragmentation
[4]; DKO strain, up to 3 hours, up to 0.3 mM
  percentage of cells showing DNA fragmentation, dependence on time and concentration: generally increases with time (up to 3 hours) and concentration

## CCCC[C@@H](C)[C@@H](OC(=O)C[C@@H](CC(=O)O)C(=O)O)[C@H](C[C@@H](C)C[C@H](O)CCCC[C@@H](O)C[C@H](O)[C@H](C)N)OC(=O)C[C@@H](CC(=O)O)C(=O)O [fumonisin B1]
[4]; data not shown
  cells undergoing apoptosis in the presence of the inhibitor: more cells underwent apoptosis
  rescue of palmitate-induced apoptosis: no rescue of apoptosis was observed

## CCCCCCC(=O)CCCCCC/C=C/C[C@@H](O)[C@H](O)[C@@](N)(CO)C(=O)O [myriocin]
[4]; data not shown
  cells undergoing apoptosis in the presence of the inhibitor: more cells underwent apoptosis
  rescue of palmitate-induced apoptosis: no rescue of apoptosis was observed

## CCCCCCCC/C=C\CCCCCCCC(=O)O [oleate, oleic acid]
[2]
  ROS production: induced dramatic ROS production
[4]
  apoptosis induced by fatty acid: caused the DKO cells to undergo apoptosis
[5]; after 2-hour incubation with oleate, from 1
  DAG level: 2.5 nM/mg dry weight

## CCCCCCCCCCCCCCCC(=O)O [palmitate, palmitic acid]
[2]
  ROS production: induced dramatic ROS production
[4]
  apoptosis induced by fatty acid: caused the DKO cells to undergo apoptosis
[6]
  DAG level: 1.5 nM/mg dry weight
[5]; after 2-hour incubation with 0.8 mM palmitate, 1 nmol/mg dry weight before addition
  DAG level: 3.5 nmol/mg dry weight

## COC(=O)C[C@H](NC(=O)[C@H](C)NC(=O)[C@@H](NC(=O)OCc1ccccc1)C(C)C)C(=O)CF [zVADfmk] (Cbz-Val-Ala-Asp(OMe)-CH2F)
[3]; [9]
  prevention of cell death: failed to prevent cell death
[4]; [9]
  prevention of DNA fragmentation: failed to prevent cell death and DNA fragmentation

Reference: patent US7479374B2, “Triacylglycerol-deficient fission yeast and its uses” (priority 2003, dated 2009)
